Laboratory results reported in PMC5218480 (PLoS ONE, 2017).

Tested on: MV-4-11 cells
Assay: Gene expression microarray analysis (Affymetrix PrimeView) and GSEA
Format: cell-based, human
Design: RFU PODN (11730768_x_at) / Fold change /veh PODN (11730768_x_at) / RFU LINC00158 (11744669_a_at) / Fold change /veh LINC00158 (11744669_a_at) / RFU DUSP10 (11751237_a_at) / Fold change /veh DUSP10 (11751237_a_at) / RFU ID3 (11757404_x_at) / Fold change /veh ID3 (11757404_x_at) / RFU PLEKHG5 (11737974_s_at) / Fold change /veh PLEKHG5 (11737974_s_at) / RFU LRRC4B (11730491_at) / Fold change /veh LRRC4B (11730491_at) / RFU GIMAP4 (11747438_a_at) / Fold change /veh GIMAP4 (11747438_a_at) / RFU KRT8 (11758183_x_at) / Fold change /veh KRT8 (11758183_x_at) / RFU CNN1 (11734310_a_at) / Fold change /veh CNN1 (11734310_a_at) / RFU VPS37D (11726825_at) / Fold change /veh VPS37D (11726825_at) / RFU C10orf10 (11716522_x_at) / Fold change /veh C10orf10 (11716522_x_at) / RFU KIR2DL2 /// KIR2DL4 /// KIR2DL5A /// KIR2DL5B /// KIR2DS1 /// KIR2DS2 /// KIR2DS3 /// KIR2DS4 /// KIR3DL3 /// KIR3DL3 /// KIR3DS1 (11738374_at) / Fold change /veh KIR2DL2 /// KIR2DL4 /// KIR2DL5A /// KIR2DL5B /// KIR2DS1 /// KIR2DS2 /// KIR2DS3 /// KIR2DS4 /// KIR3DL3 /// KIR3DL3 /// KIR3DS1 (11738374_at) / RFU C1QL1 (11718748_at) / Fold change /veh C1QL1 (11718748_at) / RFU TMPRSS4 (11747572_a_at) / Fold change /veh TMPRSS4 (11747572_a_at) / RFU HAMP (11756126_x_at) / Fold change /veh HAMP (11756126_x_at) / RFU RNFT2 (11725882_a_at) / Fold change /veh RNFT2 (11725882_a_at) / RFU NR4A2 (11747474_a_at) / Fold change /veh NR4A2 (11747474_a_at) / RFU ABCC12 (11746883_a_at) / Fold change /veh ABCC12 (11746883_a_at) / RFU TMEM136 (11760407_x_at) / Fold change /veh TMEM136 (11760407_x_at) / RFU CLDN22 /// WWC2 (11732394_at) / Fold change /veh CLDN22 /// WWC2 (11732394_at) / RFU HLA-DPB1 (11760878_x_at) / Fold change /veh HLA-DPB1 (11760878_x_at) / RFU SPINT1 (11716480_a_at) / Fold change /veh SPINT1 (11716480_a_at) / RFU GAP43 (11754022_s_at) / Fold change /veh GAP43 (11754022_s_at) / RFU A4GNT (11735810_at) / Fold change /veh A4GNT (11735810_at) / RFU PRB3 (11715151_x_at) / Fold change /veh PRB3 (11715151_x_at) / RFU TUBB4B (11761932_at) / Fold change /veh TUBB4B (11761932_at) / RFU CAPN14 (11732068_a_at) / Fold change /veh CAPN14 (11732068_a_at) / RFU TMCC2 (11721928_a_at) / Fold change /veh TMCC2 (11721928_a_at) / RFU IRGQ (11745062_a_at) / Fold change /veh IRGQ (11745062_a_at) / RFU FAM174B (11720279_a_at) / Fold change /veh FAM174B (11720279_a_at) / RFU TMPRSS4 (11748680_a_at) / Fold change /veh TMPRSS4 (11748680_a_at) / RFU FAM212B (11763350_a_at) / Fold change /veh FAM212B (11763350_a_at) / RFU PLEKHG5 (11743358_a_at) / Fold change /veh PLEKHG5 (11743358_a_at) / RFU ZSCAN30 (11745921_a_at) / Fold change /veh ZSCAN30 (11745921_a_at) / RFU CMKLR1 (11741424_a_at) / Fold change /veh CMKLR1 (11741424_a_at) / RFU LOC101060620 /// MAPK8IP1 (11723275_at) / Fold change /veh LOC101060620 /// MAPK8IP1 (11723275_at) / RFU SPTSSB (11747773_x_at) / Fold change /veh SPTSSB (11747773_x_at) / RFU PRSS12 (11739890_at) / Fold change /veh PRSS12 (11739890_at) / RFU BIN1 (11741810_x_at) / Fold change /veh BIN1 (11741810_x_at) / RFU WNT11 (11732464_a_at) / Fold change /veh WNT11 (11732464_a_at) / RFU C10orf10 (11716521_a_at) / Fold change /veh C10orf10 (11716521_a_at) / RFU C5orf56 (11738089_at) / Fold change /veh C5orf56 (11738089_at) / RFU CYB561 (11721691_x_at) / Fold change /veh CYB561 (11721691_x_at) / RFU ANKRD19P (11752326_a_at) / Fold change /veh ANKRD19P (11752326_a_at) / RFU OR2T12 /// OR2T33 /// OR2T8 (11738714_s_at) / Fold change /veh OR2T12 /// OR2T33 /// OR2T8 (11738714_s_at) / RFU VCAN (11748164_a_at) / Fold change /veh VCAN (11748164_a_at) / RFU JSRP1 (11732532_at) / Fold change /veh JSRP1 (11732532_at) / RFU KRTAP10-11 (11738290_x_at) / Fold change /veh KRTAP10-11 (11738290_x_at) / RFU MYO3A (11730013_a_at) / Fold change /veh MYO3A (11730013_a_at) / RFU EBF3 (11725865_a_at) / Fold change /veh EBF3 (11725865_a_at) / RFU CAMK2N1 (11719241_x_at) / Fold change /veh CAMK2N1 (11719241_x_at) / RFU C5orf56 (11738088_a_at) / Fold change /veh C5orf56 (11738088_a_at) / RFU OLFML3 (11715873_a_at) / Fold change /veh OLFML3 (11715873_a_at) / RFU LOC100653217 /// NTM (11731650_a_at) / Fold change /veh LOC100653217 /// NTM (11731650_a_at) / RFU MAPK11 (11762145_a_at) / Fold change /veh MAPK11 (11762145_a_at) / RFU FIZ1 (11724087_x_at) / Fold change /veh FIZ1 (11724087_x_at) / RFU OASL (11726364_x_at) / Fold change /veh OASL (11726364_x_at) / RFU SOX15 (11748057_x_at) / Fold change /veh SOX15 (11748057_x_at) / RFU CD79A (11719716_a_at) / Fold change /veh CD79A (11719716_a_at) / RFU HIST1H1D (11736915_at) / Fold change /veh HIST1H1D (11736915_at) / RFU CASKIN2 (11723855_a_at) / Fold change /veh CASKIN2 (11723855_a_at) / RFU LOC730098 (11760151_x_at) / Fold change /veh LOC730098 (11760151_x_at) / RFU OR4N2 (11742367_at) / Fold change /veh OR4N2 (11742367_at) / RFU PRRT2 (11749266_a_at) / Fold change /veh PRRT2 (11749266_a_at) / RFU SNX32 (11753110_a_at) / Fold change /veh SNX32 (11753110_a_at) / RFU CDHR5 (11726645_a_at) / Fold change /veh CDHR5 (11726645_a_at) / RFU RCAN1 (11760418_a_at) / Fold change /veh RCAN1 (11760418_a_at) / RFU FAM167A (11723789_a_at) / Fold change /veh FAM167A (11723789_a_at) / RFU FAM26E (11764081_at) / Fold change /veh FAM26E (11764081_at) / RFU ISYNA1 (11749810_s_at) / Fold change /veh ISYNA1 (11749810_s_at) / RFU ACY1 (11761880_at) / Fold change /veh ACY1 (11761880_at) / RFU 11764098_at / Fold change /veh 11764098_at / RFU SAMD14 (11745864_x_at) / Fold change /veh SAMD14 (11745864_x_at) / RFU NPB (11741838_a_at) / Fold change /veh NPB (11741838_a_at) / RFU TMPRSS6 (11731388_a_at) / Fold change /veh TMPRSS6 (11731388_a_at) / RFU KRTAP10-2 (11738614_at) / Fold change /veh KRTAP10-2 (11738614_at) / RFU ARHGAP8 /// PRR5-ARHGAP8 (11727945_x_at) / Fold change /veh ARHGAP8 /// PRR5-ARHGAP8 (11727945_x_at) / RFU KRTAP5-7 /// NADSYN1 (11734609_at) / Fold change /veh KRTAP5-7 /// NADSYN1 (11734609_at) / RFU RASL12 (11751679_a_at) / Fold change /veh RASL12 (11751679_a_at) / RFU CDKN2B (11736163_a_at) / Fold change /veh CDKN2B (11736163_a_at) / RFU PRF1 (11729649_at) / Fold change /veh PRF1 (11729649_at) / RFU, ZNF638 /// ZNF638-IT1 / Fold change vs veh, ZNF638 /// ZNF638-IT1 / RFU, PANK3 / Fold change vs veh, PANK3 / RFU, SH3YL1 / Fold change vs veh, SH3YL1 / RFU, ZEB2 / Fold change vs veh, ZEB2 / RFU, NRIP1 / Fold change vs veh, NRIP1 / RFU, PTTG1IP / Fold change vs veh, PTTG1IP / RFU, CAPN2 / Fold change vs veh, CAPN2 / RFU, MED14 / Fold change vs veh, MED14 / RFU, SNORA58 / Fold change vs veh, SNORA58 / RFU, C1orf63 / Fold change vs veh, C1orf63 / RFU, LRRFIP1 / Fold change vs veh, LRRFIP1 / RFU, NDUFAF7 / Fold change vs veh, NDUFAF7 / RFU, SLC12A2 / Fold change vs veh, SLC12A2 / RFU, IBTK / Fold change vs veh, IBTK / RFU, ESF1 / Fold change vs veh, ESF1 / Fold change vs veh, TMEM50B / RFU, TAOK1 / Fold change vs veh, TAOK1 / RFU, ACBD3 / Fold change vs veh, ACBD3 / RFU, TMA16 / Fold change vs veh, TMA16 / RFU, RWDD3 / Fold change vs veh, RWDD3 / RFU, BCAT1 / Fold change vs veh, BCAT1 / RFU, EDEM3 / Fold change vs veh, EDEM3 / RFU, TMEM33 / Fold change vs veh, TMEM33 / RFU, WDR75 / Fold change vs veh, WDR75 / RFU, AHCTF1 / Fold change vs veh, AHCTF1 / RFU, TFRC / Fold change vs veh, TFRC / RFU, ZDHHC17 / Fold change vs veh, ZDHHC17 / RFU, NOM1 / Fold change vs veh, NOM1 / RFU, ARL8B / Fold change vs veh, ARL8B / RFU, ZBTB11 / Fold change vs veh, ZBTB11 / RFU, TAMM41 / Fold change vs veh, TAMM41 / RFU, KIAA1704 /// LOC100996395 / Fold change vs veh, KIAA1704 /// LOC100996395 / RFU, ING1 / Fold change vs veh, ING1 / RFU, TRMT61B / Fold change vs veh, TRMT61B / RFU, FUBP3 / Fold change vs veh, FUBP3 / RFU, TP53 / Fold change vs veh, TP53 / RFU, TNKS2 / Fold change vs veh, TNKS2 / RFU, ZFP14 / Fold change vs veh, ZFP14 / RFU, ACTR2 / Fold change vs veh, ACTR2 / RFU, PPP3R1 / Fold change vs veh, PPP3R1 / RFU, PIK3R1 / Fold change vs veh, PIK3R1 / RFU, HNRNPA1 / Fold change vs veh, HNRNPA1 / RFU, RNF170 / Fold change vs veh, RNF170 / RFU, ZNF28 / Fold change vs veh, ZNF28 / RFU, RNGTT / Fold change vs veh, RNGTT / RFU, OGT / Fold change vs veh, OGT / RFU, BRD1 / Fold change vs veh, BRD1 / RFU, MARS / Fold change vs veh, MARS / RFU, ZNF655 / Fold change vs veh, ZNF655 / RFU, FAHD1 / Fold change vs veh, FAHD1 / RFU, BDP1 / Fold change vs veh, BDP1 / RFU, LRRCC1 / Fold change vs veh, LRRCC1 / RFU, ARID1A / Fold change vs veh, ARID1A / RFU, ZNF146 / Fold change vs veh, ZNF146 / RFU, ZNF330 / Fold change vs veh, ZNF330 / RFU, GPN3 / Fold change vs veh, GPN3 / RFU, C9orf123 / Fold change vs veh, C9orf123 / RFU, N4BP2L2 / Fold change vs veh, N4BP2L2 / RFU, ARFIP1 / Fold change vs veh, ARFIP1 / RFU, FAM179B / Fold change vs veh, FAM179B / RFU, BCL10 / Fold change vs veh, BCL10 / RFU, UHRF1BP1L / Fold change vs veh, UHRF1BP1L / RFU, BET1 / Fold change vs veh, BET1 / RFU, CNOT2 / Fold change vs veh, CNOT2 / RFU, ZNF268 / Fold change vs veh, ZNF268 / Fold change vs veh, ZNF507 / RFU, DGCR2 / Fold change vs veh, DGCR2 / RFU, WDSUB1 / Fold change vs veh, WDSUB1 / Fold change vs veh, HSP90B1 /// MIR3652 / RFU, ADSS / Fold change vs veh, ADSS / RFU, GK / Fold change vs veh, GK / RFU, ZNF148 / Fold change vs veh, ZNF148 / RFU, TAF9 / Fold change vs veh, TAF9 / RFU, SLC1A5 / Fold change vs veh, SLC1A5 / RFU, SLMO2 / Fold change vs veh, SLMO2 / RFU, ABCC4 / Fold change vs veh, ABCC4 / RFU, LOC101060439 /// RAP1B / Fold change vs veh, LOC101060439 /// RAP1B / RFU, RFX7 / Fold change vs veh, RFX7 / RFU, GTPBP10 / Fold change vs veh, GTPBP10 / RFU, CNEP1R1 / Fold change vs veh, CNEP1R1 / RFU, BIVM-ERCC5 /// ERCC5 / Fold change vs veh, BIVM-ERCC5 /// ERCC5 / RFU, ILF3 / Fold change vs veh, ILF3 / RFU 11762660_at / Fold change /veh 11762660_at / RFU VCAN (11757783_s_at) / Fold change /veh VCAN (11757783_s_at) / RFU DDX43 (11728927_at) / Fold change /veh DDX43 (11728927_at) / RFU KRT8 (11758188_x_at) / Fold change /veh KRT8 (11758188_x_at) / RFU NKD1 (11759106_at) / Fold change /veh NKD1 (11759106_at) / RFU SRD5A1 (11742802_a_at) / Fold change /veh SRD5A1 (11742802_a_at) / RFU TPSAB1 /// TPSB2 (11721975_s_at) / Fold change /veh TPSAB1 /// TPSB2 (11721975_s_at) / RFU GSTM3 (11746129_a_at) / Fold change /veh GSTM3 (11746129_a_at) / RFU IL23R (11737362_x_at) / Fold change /veh IL23R (11737362_x_at) / RFU TMEM51 (11727254_a_at) / Fold change /veh TMEM51 (11727254_a_at) / RFU PIWIL2 (11732686_x_at) / Fold change /veh PIWIL2 (11732686_x_at) / RFU ORM1 (11744905_x_at) / Fold change /veh ORM1 (11744905_x_at) / RFU CCDC152 (11743942_at) / Fold change /veh CCDC152 (11743942_at) / RFU ECM1 (11717891_a_at) / Fold change /veh ECM1 (11717891_a_at) / RFU IL23R (11748794_a_at) / Fold change /veh IL23R (11748794_a_at) / RFU TNFAIP8L3 (11732012_x_at) / Fold change /veh TNFAIP8L3 (11732012_x_at) / RFU MBOAT4 (11741988_at) / Fold change /veh MBOAT4 (11741988_at) / RFU 11764193_at / Fold change /veh 11764193_at / RFU TMEM53 (11763286_at) / Fold change /veh TMEM53 (11763286_at) / RFU MAGEB2 (11727129_at) / Fold change /veh MAGEB2 (11727129_at) / RFU TMEM200A (11744735_a_at) / Fold change /veh TMEM200A (11744735_a_at) / RFU CCDC152 (11751479_a_at) / Fold change /veh CCDC152 (11751479_a_at) / RFU FAM211A (11726209_a_at) / Fold change /veh FAM211A (11726209_a_at) / RFU RGS16 (11746705_a_at) / Fold change /veh RGS16 (11746705_a_at) / RFU VCAN (11755009_s_at) / Fold change /veh VCAN (11755009_s_at) / RFU RHOB (11743442_s_at) / Fold change /veh RHOB (11743442_s_at) / RFU RGS16 (11720943_a_at) / Fold change /veh RGS16 (11720943_a_at) / RFU RGS16 (11720944_at) / Fold change /veh RGS16 (11720944_at) / RFU, VPS4B / Fold change vs veh, VPS4B / RFU, CREB1 / Fold change vs veh, CREB1 / RFU, DNAJC13 / Fold change vs veh, DNAJC13 / RFU, GNAQ / Fold change vs veh, GNAQ / RFU, CDK5R1 / Fold change vs veh, CDK5R1 / RFU, ZRANB3 / Fold change vs veh, ZRANB3 / RFU, CUL4A / Fold change vs veh, CUL4A / RFU, CCNY / Fold change vs veh, CCNY / RFU, UFL1 / Fold change vs veh, UFL1 / RFU, COG3 / Fold change vs veh, COG3 / RFU, DIAPH2 / Fold change vs veh, DIAPH2 / RFU, SKA2 / Fold change vs veh, SKA2 / RFU, AFF3 / Fold change vs veh, AFF3 / RFU, LMF1 / Fold change vs veh, LMF1 / RFU, IPO11 / Fold change vs veh, IPO11 / RFU, DFFB / Fold change vs veh, DFFB / RFU, FOXP1 / Fold change vs veh, FOXP1 / RFU, CARD8 / Fold change vs veh, CARD8 / RFU, STRN3 / Fold change vs veh, STRN3 / RFU, ADK / Fold change vs veh, ADK / RFU, RASSF2 / Fold change vs veh, RASSF2 / RFU, WIPF1 / Fold change vs veh, WIPF1 / RFU, LARP1B / Fold change vs veh, LARP1B / RFU, RASA1 / Fold change vs veh, RASA1 / RFU, RB1 / Fold change vs veh, RB1 / RFU, PPFIA1 / Fold change vs veh, PPFIA1 / RFU, MAT2A / Fold change vs veh, MAT2A / RFU, CCT5 / Fold change vs veh, CCT5 / RFU, WDR92 / Fold change vs veh, WDR92 / RFU, CUX1 / Fold change vs veh, CUX1 / RFU, TTC7A / Fold change vs veh, TTC7A / RFU, TMEM135 / Fold change vs veh, TMEM135 / RFU, DEPTOR / Fold change vs veh, DEPTOR / RFU, CPM / Fold change vs veh, CPM / RFU, DNAJB6 / Fold change vs veh, DNAJB6 / RFU, CACNA2D3 / Fold change vs veh, CACNA2D3 / RFU, DTX4 / Fold change vs veh, DTX4 / RFU, TFCP2 / Fold change vs veh, TFCP2 / RFU, GMCL1 /// GMCL1P1 / Fold change vs veh, GMCL1 /// GMCL1P1 / RFU, AEBP2 / Fold change vs veh, AEBP2 / RFU, SNHG1 /// SNORD22 /// SNORD25 /// SNORD26 /// SNORD27 /// SNORD28 /// SNORD29 /// SNORD31 / Fold change vs veh, SNHG1 /// SNORD22 /// SNORD25 /// SNORD26 /// SNORD27 /// SNORD28 /// SNORD29 /// SNORD31 / Fold change (Aza/veh), C12orf56 (ProbeSet 11735607_a_at) / Fold change (ACY-1035/veh), C12orf56 (ProbeSet 11735607_a_at) / Fold change (Aza/veh), FGFR1OP (ProbeSet 11751329_s_at) / Fold change (ACY-1035/veh), FGFR1OP (ProbeSet 11751329_s_at) / Fold change (Aza/veh), VPS36 (ProbeSet 11739960_a_at) / Fold change (ACY-1035/veh), VPS36 (ProbeSet 11739960_a_at) / RFU SYPL1 (11715823_x_at) / Fold change /veh SYPL1 (11715823_x_at) / RFU IGFBP7 (11715501_s_at) / Fold change /veh IGFBP7 (11715501_s_at) / RFU REEP3 (11722064_at) / Fold change /veh REEP3 (11722064_at) / RFU IGLL1 (11728026_x_at) / Fold change /veh IGLL1 (11728026_x_at): dose or concentration left out as unconfirmed
Details: ProbeSet 11723930_at; LIST D

## Nc1ccc(-c2cccs2)cc1NC(=O)c1ccc2c(c1)cc(C1CC1)n2CCN1CCOCC1 [ACY-1035]
  RFU, CCT5: 132.28 RFU
